Strand notation (5' to 3'): a small letter for the sugar, then the base; units joined by * are phosphorothioate-linked, units joined directly phosphodiester-linked; [ ] holds rarer units or linkages, { } end groups; capitals alone tell only the bases. e = 2'-O-(2-methoxyethyl) (MOE); k = constrained ethyl (cEt); [5mC] = 5-methylcytosine; d = 2'-deoxy (DNA); m = 2'-O-methyl
System: Yap1 mRNA
Test: Antisense inhibition of human Yap1 in SNU-449 cells by modified oligonucleotides, single dose (Example 5, RTS36584)
Format: cell-based
In short: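 Plate SNU-449 cells at 10,000 per well; add 2,000 nM modified oligonucleotide without transfection reagent; after ~48 h isolate RNA, run qRT-PCR with RTS36584, normalise to RIBOGREEN and report % UTC.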

[1] = Table 43 experiment, SNU-449 cells, 10,000 cells per well, free uptake, 2,000 nM, approximately 48 hours, RTS36584, Yap1 mRNA normalized to RIBOGREEN, relative to untreated control cells
[2] = Table 46, Yap1 mRNA as percent of untreated control, SNU-449 cells, single dose
[3] = Table 42 (separate experiment), SNU-449 cells, 10,000 cells per well, free uptake, 2,000 nM modified oligonucleotide, approximately 48 hours, RTS36584, normalized to RIBOGREEN, Yap1 mRNA relative to untreated control cells
[4] = Table 44 experiment, SNU-449 cells, 10,000 cells per well, free uptake, 2,000 nM, approximately 48 hours, RTS36584, Yap1 mRNA normalized to RIBOGREEN, relative to untreated control cells
[5] = Table 48, Yap1 mRNA level relative to untreated control, modified oligonucleotides targeting SEQ ID NO.: 1 and 2
[6] = Yap1 mRNA, percent of untreated control, modified oligonucleotides targeting SEQ ID NO: 1 and 2, Table 47
[7] = Table 52, Yap1 mRNA, modified oligonucleotides targeting SEQ ID NO: 1 and 2
[8] = Table 49, Yap1 mRNA level relative to untreated control, modified oligonucleotides targeting SEQ ID NO.: 1 and 2
[9] = Table 41, SNU-449 cells, 10,000 cells per well, free uptake, 2,000 nM modified oligonucleotide, approximately 48 hours, RTS36584, normalized to RIBOGREEN, Yap1 mRNA relative to untreated control cells
[10] = Table 39, SNU-449 cells, 10,000 cells per well, free uptake, 2,000 nM oligonucleotide, approx. 48 hours, RTS36584, normalized to RIBOGREEN, Yap1 mRNA relative to untreated control
[11] = Table 50, Yap1 mRNA remaining as percent of untreated control (UT), SNU-449 cells, single dose
[12] = Table 40 (separate experiment), SNU-449 cells, 10,000 cells per well, free uptake, 2,000 nM oligonucleotide, approx. 48 hours, RTS36584, normalized to RIBOGREEN, Yap1 mRNA relative to untreated control
[13] = Table 51, Yap1 mRNA remaining as percent of untreated control (UT), SNU-449 cells, single dose

Substance: 1198247 (kA*kT*dT*d[5mC]*dA*dG*dA*dT*dT*dT*dA*eG*eG*eA*kT*kG; antisense) [Compound 1198247]
- YAP1 (% UTC) [1]: 99 % UTC

Substance: 1198885 (k[5mC]*kT*dA*dA*dG*dT*dA*dA*dG*dG*dT*kT*eT*k[5mC]*e[5mC]*k[5mC]; antisense) [Compound 1198885]
- YAP1 (% UT) [2]: 41 % UT

Substance: 1198700 (kT*kA*dA*dA*dG*dT*dG*dT*dA*dT*dG*dT*k[5mC]*eA*kG*eA; antisense) [Compound 1198700]
- YAP1 (% UTC) [3]: 26 % UTC

Substance: 1198270 (kT*kA*dA*dA*dG*dT*dG*dT*dA*dT*dG*eT*e[5mC]*eA*kG*kA; antisense) [Compound 1198270]
- YAP1 (% UTC) [1]: 52 % UTC

Substance: 1198525 (kA*kG*dT*dG*dT*dA*dT*dG*dT*d[5mC]*dA*eG*kA*eA*kG*eA; antisense) [Compound 1198525]
- YAP1 (% UTC) [4]: 2 % UTC

Substance: 1198348 (kT*kG*kT*dA*dA*dT*dA*dT*dT*dG*d[5mC]*dA*kA*eT*k[5mC]*eT; antisense) [Compound 1198348]
- YAP1 (% UT) [5]: 40 % UT

Substance: 1198877 (kT*kT*dA*dA*dA*dG*dT*dG*dT*dA*dT*kG*eT*k[5mC]*eA*kG; antisense) [Compound 1198877]
- YAP1 (% UT) [6]: 11 % UT

Substance: 1198804 (antisense kT*kG*dT*d[5mC]*dT*d[5mC]*dA*dT*dG*d[5mC]*d[5mC]*kT*eT*kA*eT*kA) [Compound 1198804]
- YAP1 (% UT) [2]: 22 % UT

Substance: 1198509 (kT*k[5mC]*dT*dT*dA*dT*dA*dT*dG*dG*dT*eT*kT*eT*kG*eT; antisense) [Compound 1198509]
- YAP1 (% UTC) [4]: 20 % UTC

Substance: 1200843 (kA*k[5mC]*kT*d[5mC]*dT*mU*dA*dT*dA*dT*dG*dG*dT*kT*kT*kT; antisense) [Compound 1200843]
- YAP1 (% UT) [7]: 46 % UT

Substance: 1198460 (antisense kG*kA*dA*dA*dT*dT*dG*dT*d[5mC]*dT*d[5mC]*eA*kT*eG*k[5mC]*e[5mC]) [Compound 1198460]
- YAP1 (% UTC) [1]: 17 % UTC

Substance: 1198354 (kA*kA*kG*dT*dG*dT*dA*dT*dG*dT*d[5mC]*dA*kG*eA*kA*eG; antisense) [Compound 1198354]
- YAP1 (% UT) [8]: 6 % UT

Substance: 1095481 (antisense kT*kG*dA*dG*dG*dT*dA*dT*dA*dA*d[5mC]*dT*kG*eG*kG*e[5mC]) [Compound 1095481]
- YAP1 (% UTC) [3]: 21 % UTC

Substance: 1198266 (kT*kG*dT*dA*dT*dG*dT*d[5mC]*dA*dG*dA*eA*eG*eA*kG*kT; antisense) [Compound 1198266]
- YAP1 (% UTC) [1]: 25 % UTC

Substance: 1198691 (antisense kG*kT*dA*dA*dT*dA*dT*dT*dG*d[5mC]*dA*dA*kT*e[5mC]*kT*eG) [Compound 1198691]
- YAP1 (% UTC) [9]: 38 % UTC

Substance: 1198388 (kT*dA*dT*dA*dA*d[5mC]*dT*dG*dG*dG*d[5mC]*kA*eA*kA*eT*kT; antisense) [Compound 1198388]
- YAP1 (% UTC) [10]: 90 % UTC

Substance: 1198283 (kT*kT*dA*dG*dA*d[5mC]*dT*dA*dA*dG*dT*eA*eA*eG*kG*kT; antisense) [Compound 1198283]
- YAP1 (% UTC) [1]: 99 % UTC

Substance: 1198614 (antisense kT*kA*kA*dA*dG*dT*dG*dT*dA*dT*dG*dT*k[5mC]*kA*kG*eA) [Compound 1198614]
- YAP1 (% UT) [11]: 4 % UT

Substance: 1198473 (antisense kT*k[5mC]*dT*dA*dT*dA*dT*dT*dA*dG*dA*eG*kT*eA*kT*eG) [Compound 1198473]
- YAP1 (% UTC) [1]: 66 % UTC

Substance: 1200867 (kA*kA*kG*dT*dA*mA*dG*dG*dT*dT*dT*d[5mC]*d[5mC]*k[5mC]*kA*kG; antisense) [Compound 1200867]
- YAP1 (% UT) [7]: 38 % UT

Substance: 1198829 (k[5mC]*kT*dT*dT*dT*dA*d[5mC]*dA*dT*dT*dA*kG*eG*kA*eA*k[5mC]; antisense) [Compound 1198829]
- YAP1 (% UT) [2]: 36 % UT

Substance: 1198752 (kT*eT*kT*dG*dG*dA*dA*dG*dA*dT*d[5mC]*dT*eG*eA*kA*kA; antisense) [Compound 1198752]
- YAP1 (% UTC) [12]: 111 % UTC

Substance: 1197300 (kG*kA*kT*dT*mU*dA*dG*dG*dA*dT*dG*d[5mC]*dA*kT*kG*kG; antisense) [Compound 1197300]
- YAP1 (% UT) [13]: 42 % UT

Substance: 1200789 (G_{ks}G_{ks}A_{ks}A_{ds}A_{ds}U_{ys}T_{ds}G_{ds}T_{ds}^{m}C_{ds}T_{ds}^{m}C_{ds}A_{ds}T_{ks}G_{ks}^{m}C_{k}; antisense; as printed in the source, key not given here) [Compound 1200789]
- YAP1 (% UT) [7]: 12 % UT

Substance: 1198617 (antisense k[5mC]*kT*kT*dT*dA*dA*dA*dG*dT*dG*dT*dA*kT*kG*kT*e[5mC]) [Compound 1198617]
- YAP1 (% UT) [11]: 34 % UT

Substance: 1198467 (antisense kT*kA*dG*dA*dG*dT*dA*dT*dG*dT*dG*eG*k[5mC]*eA*kA*eT) [Compound 1198467]
- YAP1 (% UTC) [1]: 27 % UTC

Substance: 1198214 (kT*kA*dT*dA*dT*dT*dA*dG*dA*dG*dT*eA*eT*eG*kT*kG; antisense) [Compound 1198214]
- YAP1 (% UTC) [3]: 91 % UTC

Substance: 1198506 (kA*kT*dA*dT*dG*dG*dT*dT*dT*dT*dG*eT*kG*eT*kG*eT; antisense) [Compound 1198506]
- YAP1 (% UTC) [4]: 47 % UTC

Substance: 1198452 (kA*d[5mC]*dT*dA*dA*dG*dT*dA*dA*dG*dG*kT*eT*kT*e[5mC]*k[5mC]; antisense) [Compound 1198452]
- YAP1 (% UTC) [10]: 38 % UTC

Substance: 1198944 (k[5mC]*kT*d[5mC]*dT*dT*dA*dT*dA*dT*dG*dG*kT*dT*kT*dT*kG; antisense) [Compound 1198944]
- YAP1 (% UTC) (Table 45, Yap1 mRNA as percent of untreated control, SNU-449 cells, single dose): 34 % UTC

Substance: 1198635 (kA*kT*dG*dG*dA*dA*dA*dT*dT*dG*dT*d[5mC]*kT*e[5mC]*kA*eT; antisense) [Compound 1198635]
- YAP1 (% UTC) [9]: 57 % UTC

Substance: 1198456 (kT*kG*dT*d[5mC]*dT*d[5mC]*dA*dT*dG*d[5mC]*d[5mC]*eT*kT*eA*kT*eA) [Compound 1198456]
- YAP1 (% UTC) [1]: 21 % UTC

Substance: 1197314 (kA*kA*kA*dG*mU*dG*dT*dA*dT*dG*dT*d[5mC]*dA*kG*kA*kA; antisense) [Compound 1197314]
- YAP1 (% UT) [13]: 22 % UT

Substance: 1198846 (kT*kT*dA*dG*dG*dA*dT*dG*d[5mC]*dA*dT*kG*eG*kT*eT*kT; antisense) [Compound 1198846]
- YAP1 (% UT) [2]: 34 % UT

Substance: 1198351 (kT*kT*kT*dA*dT*dG*dT*dA*dA*dT*dA*dT*kT*eG*k[5mC]*eA; antisense) [Compound 1198351]
- YAP1 (% UT) [8]: 40 % UT

Substance: 1198680 (antisense k[5mC]*kT*dT*dA*dT*dA*dT*dG*dG*dT*dT*dT*kT*eG*kT*eG) [Compound 1198680]
- YAP1 (% UTC) [3]: 28 % UTC

Substance: 1198717 (kA*eA*kA*dT*dT*dG*dT*d[5mC]*dT*d[5mC]*dA*dT*eG*e[5mC]*k[5mC]*kT; antisense) [Compound 1198717]
- YAP1 (% UTC) [12]: 41 % UTC

Substance: 1198329 (kG*kA*kT*dT*dT*dA*dG*dG*dA*dT*dG*d[5mC]*kA*eT*kG*eG; antisense) [Compound 1198329]
- YAP1 (% UT) [5]: 36 % UT

Substance: 1198383 (kA*dT*dT*dA*dG*dA*dG*dT*dA*dT*dG*kT*eG*kG*e[5mC]*kA; antisense) [Compound 1198383]
- YAP1 (% UTC) [10]: 31 % UTC

Substance: 1198398 (kG*d[5mC]*dA*dC*dT*dT*dT*dT*dA*d[5mC]*dA*kT*eT*kA*eG*kG) [Compound 1198398]
- YAP1 (% UTC) [10]: 18 % UTC

Substance: 1198299 (ATATTAGAGTATGTGG; chemistry not fully specified) [Compound 1198299]
- YAP1 (% UT) [5]: 27 % UT

Substance: 1198455 (kT*dT*dA*dG*dA*d[5mC]*dT*dA*dA*dG*dT*kA*eA*kG*eG*kT) [Compound 1198455]
- YAP1 (% UTC) [10]: 42 % UTC

Substance: 1200815 (k[5mC]*kA*k[5mC]*dT*dT*mU*dT*dA*d[5mC]*dA*dT*dT*dA*kG*kG*kA; antisense) [Compound 1200815]
- YAP1 (% UT) [7]: 55 % UT

Substance: 1198406 (kG*d[5mC]*dT*dT*dT*dG*dG*dA*dA*dG*dA*kT*e[5mC]*kT*eG*kA; antisense) [Compound 1198406]
- YAP1 (% UTC) [10]: 17 % UTC

Substance: 1095567 (antisense k[5mC]*kA*k[5mC]*dT*dG*dA*dG*dG*dT*dA*dT*dA*kA*e[5mC]*kT*eG) [Compound 1095567]
- YAP1 (% UT) [8]: 92 % UT

Substance: 1197206 (antisense kA*kT*kA*dT*dT*dG*d[5mC]*dA*dA*dT*d[5mC]*dT*dG*kT*k[5mC]*kT) [Compound 1197206]
- YAP1 (% UT) [6]: 63 % UT

Substance: 1197267 (kA*kT*kG*dT*mA*dA*dT*dA*dT*dT*dG*d[5mC]*dA*kA*kT*k[5mC]) [Compound 1197267]
- YAP1 (% UT) [13]: 62 % UT

Substance: 1198776 (kG*eA*k[5mC]*dA*dA*d[5mC]*dT*d[5mC]*dT*dT*dA*dT*eA*eT*kG*kG) [Compound 1198776]
- YAP1 (% UTC) [9]: 57 % UTC

From patent publication US11214803B2, “Modulators of YAP1 expression” (Ionis Pharmaceuticals, Inc., priority 2019, dated 2022)
